{"source": "paper PMC4925669", "about": "“Phytochemicals Mediate the Expression and Activity of OCTN2 as Activators of the PPARγ/RXRα Pathway” (Frontiers in Pharmacology, 2016)", "molecular_target": "T1, PPARγ (Homo sapiens, UniProt P37231)", "T1 construct": "gene PPARG; pcDNA3.1-PPARγ; with RXRα", "T1 sequence (P37231 1-505)": "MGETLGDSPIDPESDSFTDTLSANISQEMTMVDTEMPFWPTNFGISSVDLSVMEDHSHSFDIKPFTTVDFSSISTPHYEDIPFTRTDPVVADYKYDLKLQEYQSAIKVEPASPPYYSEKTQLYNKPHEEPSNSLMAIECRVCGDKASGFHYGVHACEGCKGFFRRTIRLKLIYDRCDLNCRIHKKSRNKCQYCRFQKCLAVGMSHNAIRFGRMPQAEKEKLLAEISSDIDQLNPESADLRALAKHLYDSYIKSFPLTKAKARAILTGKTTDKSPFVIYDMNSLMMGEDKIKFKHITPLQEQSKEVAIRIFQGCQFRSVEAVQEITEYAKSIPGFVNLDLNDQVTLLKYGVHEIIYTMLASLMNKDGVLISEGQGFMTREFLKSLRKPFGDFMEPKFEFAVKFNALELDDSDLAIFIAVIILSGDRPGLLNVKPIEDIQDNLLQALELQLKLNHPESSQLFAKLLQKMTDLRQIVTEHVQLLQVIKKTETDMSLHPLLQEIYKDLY", "T1 sequence (P19793 1-462 partner)": "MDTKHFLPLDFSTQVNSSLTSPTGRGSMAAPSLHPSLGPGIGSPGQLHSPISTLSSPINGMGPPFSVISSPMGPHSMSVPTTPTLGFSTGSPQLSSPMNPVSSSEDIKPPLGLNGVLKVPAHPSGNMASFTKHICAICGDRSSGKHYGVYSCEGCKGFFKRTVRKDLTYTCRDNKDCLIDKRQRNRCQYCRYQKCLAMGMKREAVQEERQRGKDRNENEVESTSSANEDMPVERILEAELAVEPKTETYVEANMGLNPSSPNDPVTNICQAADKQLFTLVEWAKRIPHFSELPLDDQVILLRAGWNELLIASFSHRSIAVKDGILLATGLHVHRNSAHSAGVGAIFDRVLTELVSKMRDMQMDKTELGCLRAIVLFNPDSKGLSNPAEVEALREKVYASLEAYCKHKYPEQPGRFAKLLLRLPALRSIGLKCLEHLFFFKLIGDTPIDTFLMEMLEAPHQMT", "experiment": "PPRE/OCTN2 dual-luciferase transactivation assay in COS-7 cells transfected with PPARγ/RXRα, blocked by GW9662", "assay_type": "cell-based"}
{"molecule": "O=c1c(O)c(-c2ccc(O)cc2)oc2cc(O)cc(O)c12", "note": "[Kaempferol]", "values": [{"measurement": "Relative RFU fold change (% of blank)", "result": "189.89 ± 5.98 % of blank"}]}
